Several values for one entry are separate records, joined by “and”; a condition that tells them apart may be missing. Equal values may be shown once. Read-outs that look alike come from different tables or passages of the source.
Tests used:
[1] = Hematic levels of UDCA and glyco UDCA after oral administration of 200 mg UDCA aqueous solution to three healthy men (Example VI); format: in vivo, human
Description: The aqueous solution dosage forms, according to this invention, containing 200 mg of ursodeoxycholic acid (UDCA), were prepared according to the method described in the above-described Example III and were administered to three healthy men having normal body weight after fasting. The hematic levels of UDCA and glyco UDCA were evaluated by means of well known chemical methods. After applying buffered serum to sep-pak column, methanol eluate was derivatized with phenacyl bromide at 80° C. for 45 minutes. These phenacyl bromide derivatives were dissolved in acetonitrile in preparation for HPLC. The experimental results of the absorption measured at certain times after dosage administration include the total absorption expressed as the area under the serum concentration-time curve (AUC: μg/mL×hours), the maximum hematic concentration (Cmax; μg/mL) that has been obtained, and the time (Tmax; hour) in which said maximum concentration has been obtained.
The experimental pharmacokinetic tests of the aqueous solution dosage forms according to this invention carried out on men show substantial improvement in AUC, Cmax and Tmax in comparison with the best results from any dosage forms known presently.
Table 4A and Table 4B show plasma concentration of UDCA and GUDCA measured in 3 men over time following on oral administration of the UDCA and GUDCA containing formulations according to Example VI and comparison of results against results of others employing different pharmaceutical formulations of UDCA.

[2] = UDCA levels in human after oral administration of liquid solution or syrup containing 600 mg UDCA per day (five subjects); format: in vivo; design: unit not given here
Source text: FIG. 3: Diagram of the mean(n=5) for group I for pharmacokinetic parameters of UDCA in human after an oral administration of liquid formulation of UDCA prepared according to Example IX without bismuth. FIG. 4: Diagram of the mean(n=5) for group II for pharmacokinetic parameters of UDCA in human after an oral administration of liquid formulation of UDCA prepared according to Example IX. […] Cmax is shown. Five human subjects were provided with dosage forms prepared according to this Example. The results are shown in Tables 5A and 5B and rendered graphically in FIGS. 3 and 4.

[3] = human, oral, Nagamatsu et al. (1997), cited from earlier work
[4] = cited from earlier work
[5] = oral, 200 mg UDCA solution of this invention

## C[C@H](CCC(=O)O)[C@H]1CC[C@H]2[C@@H]3[C@@H](O)C[C@@H]4C[C@H](O)CC[C@]4(C)[C@H]3CC[C@]12C [UDCA, ursodeoxycholic acid (3α-7β-dihydroxy-5β-cholanic acid)]
[1]; male, human, plasma, po, 200 mg, 200 mg UDCA solution of this invention, 0.25 h, three men
  concentration at 0.25 h: 8430 ± 1690 ng/mL
[1]; male, human, plasma, po, 200 mg, 200 mg UDCA solution of this invention, 1 h, three men
  concentration at 1 h: 1150 ± 470 ng/mL
[1]; male, human, plasma, po, 200 mg, 200 mg UDCA solution of this invention, 1.5 h, three men
  concentration at 1.5 h: 320 ± 110 ng/mL
[1]; male, human, plasma, po, 200 mg, oral, 200 mg UDCA solution of this invention, 0.5 h, three men, read-out: Plasma concentration, mean
  concentration at 0.5 h: 6550 ± 1050 ng/mL
[1]; male, human, plasma, po, 200 mg, oral, 200 mg UDCA solution of this invention, 0.5 h, read-out: Plasma concentration, individual men #1-#3
  concentration at 0.5 h: 4450 ng/mL
[1]; male, human, plasma, po, 200 mg, oral, 200 mg UDCA solution of this invention, 2 h, three men, read-out: Plasma concentration, mean
  concentration at 2 h: 190 ± 30 ng/mL
[1]; male, human, plasma, po, 200 mg, oral, 200 mg UDCA solution of this invention, 2 h, read-out: Plasma concentration, individual men #1-#3
  concentration at 2 h: 235 ng/mL
[1]; male, human, plasma, po, 200 mg, oral, 200 mg UDCA solution of this invention, 3 h, three men, read-out: Plasma concentration, mean
  concentration at 3 h: 170 ± 40 ng/mL
[1]; male, human, plasma, po, 200 mg, oral, 200 mg UDCA solution of this invention, 3 h, read-out: Plasma concentration, individual men #1-#3
  concentration at 3 h: 124 ng/mL
[1]; male, human, plasma, po, 200 mg, oral, 200 mg UDCA solution of this invention, three men, read-out: AUC, mean
  AUC: 5460 ± 660 ng·h/mL
[1]; male, human, plasma, po, 200 mg, oral, 200 mg UDCA solution of this invention, read-out: AUC, individual men #1-#3
  AUC: 4320 ng·h/mL
[1]; male, human, plasma, po, 200 mg, oral, 200 mg UDCA solution of this invention, read-out: Tmax, individual men #1-#3
  Tmax: 15 min
[1]; male, human, serum, po, 200 mg, oral, 200 mg UDCA solution of this invention, three men, read-out: Cmax, mean
  Cmax: 8430 ± 1690 ng/mL
[1]; male, human, serum, po, 200 mg, oral, 200 mg UDCA solution of this invention, three men, read-out: Tmax, mean
  Tmax: 15 min
[1]; [5]
  AUC, individual men #1-#3: 6600 ng·h/mL and 5470 ng·h/mL
  Cmax, individual men #1-#3: 5210 ng/mL and 10920 ng/mL and 9160 ng/mL
[1]; oral, 200 mg UDCA solution of this invention, 0.25 h
  Plasma concentration, individual men #1-#3: 5120.2 ng/mL and 10917.1 ng/mL and 9159 ng/mL
[1]; oral, 200 mg UDCA solution of this invention, 0.5 h
  Plasma concentration, individual men #1-#3: 7743.2 ng/mL and 7439.5 ng/mL
[1]; oral, 200 mg UDCA solution of this invention, 1 h
  Plasma concentration, individual men #1-#3: 1692.1 ng/mL and 1546 ng/mL and 216.3 ng/mL
[1]; oral, 200 mg UDCA solution of this invention, 1.5 h
  Plasma concentration, individual men #1-#3: 525.6 ng/mL and 275.9 ng/mL and 168 ng/mL
[1]; oral, 200 mg UDCA solution of this invention, 2 h
  Plasma concentration, individual men #1-#3: 217.6 ng/mL and 122.7 ng/mL
[1]; oral, 200 mg UDCA solution of this invention, 3 h
  Plasma concentration, individual men #1-#3: 207.4 ng/mL
[1]; oral, 200 mg, men
  Cmax compared with enteric coated sodium salt of UDCA preparations: at least two times higher
  Cmax compared with regular UDCA tablet preparations: four times higher
  Tmax compared with the fastest Tmax previously known: at least three times faster
[2]; Table 5A: human, oral liquid solution containing 600 mg UDCA per day, 0 min
  UDCA level, Average: 0.618
[2]; Table 5A: human, oral liquid solution containing 600 mg UDCA per day, 5 min
  UDCA level, Average: 4.578
[2]; Table 5A: human, oral liquid solution containing 600 mg UDCA per day, 15 min
  UDCA level, Average: 20.394
[2]; Table 5A: human, oral liquid solution containing 600 mg UDCA per day, 60 min
  UDCA level, Average: 10.202
[2]; Table 5A: human, oral liquid solution containing 600 mg UDCA per day, 120 min
  UDCA level, Average: 2.168
[2]; Table 5A: human, oral liquid solution containing 600 mg UDCA per day, 240 min
  UDCA level, Average: 0.772
[2]; Table 5B: human, oral syrup containing 600 mg UDCA per day, 0 min
  UDCA level, Average: 0.398
[2]; Table 5B: human, oral syrup containing 600 mg UDCA per day, 5 min
  UDCA level, Average: 1.976
[2]; Table 5B: human, oral syrup containing 600 mg UDCA per day, 15 min
  UDCA level, Average: 7.144
[2]; Table 5B: human, oral syrup containing 600 mg UDCA per day, 60 min
  UDCA level, Average: 15.000
[2]; Table 5B: human, oral syrup containing 600 mg UDCA per day, 120 min
  UDCA level, Average: 4.820
[2]; Table 5B: human, oral syrup containing 600 mg UDCA per day, 240 min
  UDCA level, Average: 1.258
[3]; 200 mg
  Cmax (M ± S.E.): 1900 ± 250 ng/mL
  Tmax (M ± S.E.): 90 ± 24 min
[3]; 400 mg
  Cmax (M ± S.E.): 7090 ± 1430 ng/mL
  Tmax (M ± S.E.): 48 ± 12 min
[4]
  solubility in the gastric juices and in aqueous hydrochloric acid solution: especially insoluble
  solubility in the gastric pH range: no longer soluble
  solubility in water: practically insoluble

— patent publication US7166299B2, “Preparation of aqueous clear solution dosage forms with bile acids” (priority 1998, dated 2007)
